Measurements as given in the CheMixHub drug solubility set.

Test: xn = mol fraction of the nth substance listed, in the solute-free solvent

CCOC(=O)OC1=C(c2cc(C)ccc2C)C(=O)NC12CCC(OC)CC2 (configuration not stated) + CC(C)=O + O
solubility (g/100 g solution)
Settings | 278.15 K | 283.15 K | 288.15 K | 293.15 K | 298.15 K | 303.15 K | 308.15 K | 313.15 K | 318.15 K
x2 = 0.2 | 0.475 | 0.687 | 0.839 | 1.08 | 1.39 | 1.78 | 2.25 | 2.83 | 3.61
x2 = 0.4 | 3.7 | 4.54 | 5.58 | 6.92 | 8.55 | 10.5 | 12.8 | 15.7 | 19
x2 = 0.6 | 7.51 | 9.16 | 10.8 | 13 | 15.4 | 18.3 | 21.6 | 25.5 | 29.7
x2 = 0.8 | 9.34 | 10.6 | 12.6 | 14.8 | 17.3 | 20.3 | 23.7 | 27.4 | 31.4

Cc1nc2n(c(=O)c1CCN1CCC(c3noc4cc(F)ccc34)CC1)CCCC2 + CC(C)=O + O
solubility (g/100 g solution)
Settings | 278.15 K | 283.15 K | 288.15 K | 293.15 K | 298.15 K | 303.15 K | 308.15 K | 313.15 K
x2 = 0.1175 | 0.369 | 0.399 | 0.453 | 0.525 | 0.623 | 0.702 | 0.817 | 0.918
x2 = 0.1714 | 0.727 | 0.805 | 0.935 | 1.11 | 1.27 | 1.53 | 1.7 | 2.03
x2 = 0.2368 | 1.54 | 1.75 | 2.02 | 2.34 | 2.73 | 3.22 | 3.75 | 4.38
x2 = 0.3171 | 2.54 | 2.93 | 3.36 | 3.95 | 4.61 | 5.44 | 6.41 | 7.62
x2 = 0.42 | 3.38 | 3.87 | 4.49 | 5.26 | 6.16 | 7.21 | 8.51 | 10.1
x2 = 0.5538 | 3.5 | 4.03 | 4.71 | 5.51 | 6.46 | 7.65 | 9.06 | 10.7
x2 = 0.7366 | 2.51 | 2.92 | 3.5 | 4.08 | 4.75 | 5.67 | 6.67 | 7.88

Nc1nc2ccc(OC(F)(F)F)cc2s1 + CC(C)=O + O
solubility (g/100 g solution)
Settings | 278.15 K | 283.15 K | 288.15 K | 293.15 K | 298.15 K | 303.15 K | 308.15 K | 313.15 K | 318.15 K | 323.15 K
x2 = 0.1174 | 2.79 | 2.99 | 3.26 | 3.49 | 3.89 | 4.23 | 4.48 | 4.79 | 4.98 | 5.23
x2 = 0.1714 | 6.6 | 6.96 | 7.42 | 7.95 | 8.29 | 8.75 | 9.09 | 9.43 | 9.77 | 10.1
x2 = 0.2367 | 25.5 | 25.9 | 26.5 | 27 | 27.6 | 28 | 28.5 | 29.1 | 29.8 | 30.1
x2 = 0.3175 | 40.2 | 40.6 | 40.9 | 41.1 | 41.5 | 41.8 | 42 | 42.3 | 42.7 | 43
x2 = 0.4203 | 55.1 | 56.3 | 57 | 57.7 | 59 | 60.2 | 61.1 | 62.2 | 62.9 | 63.6
x2 = 0.5537 | 70.6 | 71.7 | 72.7 | 73.6 | 74.5 | 75.3 | 76.2 | 76.7 | 77.2 | 77.8
x2 = 0.7361 | 68 | 69 | 69.9 | 71 | 71.8 | 72.8 | 73.6 | 74.2 | 75 | 75.7
